In patent US11845774B2, “Sterol derivatives and preparation method and uses thereof” (BEIJING PEKING UNIVERSITY WBL BIOTECH CO., LTD., priority 2011, dated 2023):

Target: T1, HMG-CoA reductase (rat liver microsomes) (Rattus norvegicus, UniProt P51639)
T1 construct: taking out liver of male rat, washing with KESD buffer solution; from tissue; host or cells: liver of male rat (microsomal fraction, glycerol/37 °C treatment, 35-50% ammonium sulfate fraction)
T1 sequence (P51639 1-887): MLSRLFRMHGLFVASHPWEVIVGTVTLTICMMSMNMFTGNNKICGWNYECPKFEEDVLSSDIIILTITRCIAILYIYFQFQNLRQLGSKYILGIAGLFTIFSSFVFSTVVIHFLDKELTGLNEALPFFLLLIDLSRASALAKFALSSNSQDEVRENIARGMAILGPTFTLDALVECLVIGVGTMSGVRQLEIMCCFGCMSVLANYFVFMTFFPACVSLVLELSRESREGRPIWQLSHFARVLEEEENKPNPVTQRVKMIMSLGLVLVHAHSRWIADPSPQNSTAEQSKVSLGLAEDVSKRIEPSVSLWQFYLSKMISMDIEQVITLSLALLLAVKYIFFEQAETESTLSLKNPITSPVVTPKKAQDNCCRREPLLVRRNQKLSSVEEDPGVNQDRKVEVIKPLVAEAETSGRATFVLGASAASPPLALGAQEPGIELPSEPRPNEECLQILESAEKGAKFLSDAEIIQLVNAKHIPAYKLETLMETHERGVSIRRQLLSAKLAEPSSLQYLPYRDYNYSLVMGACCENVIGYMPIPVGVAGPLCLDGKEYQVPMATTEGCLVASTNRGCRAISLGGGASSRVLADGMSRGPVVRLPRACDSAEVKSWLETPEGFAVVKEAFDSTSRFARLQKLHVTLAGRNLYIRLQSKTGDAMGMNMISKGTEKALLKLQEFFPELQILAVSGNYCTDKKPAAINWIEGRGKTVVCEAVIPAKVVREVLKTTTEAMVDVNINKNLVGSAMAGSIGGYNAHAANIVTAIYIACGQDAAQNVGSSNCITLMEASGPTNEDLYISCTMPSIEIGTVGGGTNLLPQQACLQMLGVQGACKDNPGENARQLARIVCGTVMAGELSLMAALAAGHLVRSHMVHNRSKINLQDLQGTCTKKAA
Assay: Test of activity of inhibiting HMG-CoA reductase (rate of decline of OD340)
Type: biochemical
Conditions: for Slope (rate of decline of OD340): blank control slope 16.0
Protocol: Rat liver microsomes (HMG-CoA reductase), could be commercially available or prepared by the following preparation method: taking out liver of male rat, washing with KESD buffer solution, centrifuging under 1200 g for 15 minutes, collecting supernatant, then centrifuging under 105,000 g twice, 90 minutes for each time, and collecting centrifugation deposit. The centrifugation deposit was added with 8.3% of glycerol, heated with 37° C. bath for 1 hour. The crude product of rat liver microsomes was purified with saturated ammonium sulfate, and 35-50% of purified fraction was collected. The purified fraction obtained could be stored in −80° C. refrigerator.
Compound of Formula II was dissolved in 75% ethanol solution, with initial concentration of 8.0 mg/mL, and diluted in gradient manner, to reach 4.0 mg/mL, 2.0 mg/mL, 1.0 mg/mL; lovastatin was used as positive control, dissolved with 75% ethanol solution to reach concentration of 2.0 mg/mL; in the test system, total volume was 250 μL, concentrations of ingredients were separately: potassium chloride 200 mM, potassium dihydrogen phosphate 160 mM, ethylenediamine tetraacetic acid 4 mM, dithiothreitol 10 mM, […] and 3-hydroxy-3-methylglutary coenzyme A as two substrates separately had concentrations of: 200 μM and 50 μM, pH6.8, 30 μL of enzyme was added, 4 test groups were separately added with 10 μL of new compound solutions with different concentrations, the positive control group was added with 10 μL of lovastatin solution, the blank control group was added with 10 μL of 75% ethanol solution, and dynamitic changes of OD340 were detected with Versamax ELISA at 37° C. condition. The rate of decline of OD340 (expressed in slope value) as detected within 5 minutes was used to evaluate the activity of HMG-CoA reductase, and then to evaluate the activity of enzyme inhibitor and the results were shown in Table 2.

[1] = final concentration in system 40 μg/mL
[2] = final concentration in system 80 μg/mL
[3] = final concentration in system 160 μg/mL
[4] = final concentration in system 320 μg/mL

With `C[C@@H](C(O)C1OC2C[C@H]3C4=CC=C5CC(O)CC[C@]5(C)[C@H]4CC[C@]3(C)[C@H]2[C@@]1(C)O)C(C)(C)O` (stereo partly drawn) [Compound of Formula II, 16,22-epoxy-ergosta-5,7-dien-3,20,23,25-tetraol] the Inhibition rate [1] was 14.4%, the “Slope (rate of decline of OD340)” value [1] was 13.7 and the Inhibition rate [2] was 29.4%. The “Slope (rate of decline of OD340)” value [2] was 11.3, the Inhibition rate [3] was 45.6% and the “Slope (rate of decline of OD340)” value [3] was 8.7. The Inhibition rate [4] was 53.1%, the “Slope (rate of decline of OD340)” value [4] was 7.5 and the IC50 (read-out: IC50 value, inhibition of activity of HMG-CoA reductase (converted)) was about 543 µM.
